The values below come from patent publication US12642771B2, “Compositions comprising PGI2-receptor agonists and processes for the preparation thereof” (Arena Pharmaceuticals, Inc., priority 2017, dated 2026).

The nature of this data set: Example 7B: open-label multiple-dose escalation pharmacokinetic study of modified-release tablet, fasted or fed healthy subjects. Format: in vivo, human. Here is the method: B. A second open-label, non-randomized pharmacokinetic study was conducted in healthy subjects. Fasted (cohort 1; n=19) or fed state (cohort 2, n=18) subjects received a modified-release tablet formulation of Compound 1 in a dose escalation sequence over 25 days (once daily dosing started at 0.06 mg and was slowly titrated, depending upon individual subject tolerability, by additional 0.06 mg dose increments every 5 days up to 0.3 mg once daily).
Each subject received a once daily dose of the modified-release Compound 1 for 5 days, with up to four sequential dose escalations every 5 days: • Regimen A (0.06 mg modified-release Compound 1): 1×0.06 mg Compound 1 modified-release tablet for 5 days • Regimen B (0.12 mg modified-release Compound 1): 2×0.06 mg Compound 1 modified-release tablet for 5 days • Regimen C (0.18 mg modified-release Compound 1): 3×0.06 mg Compound 1 modified-release tablet for 5 days • Regimen D (0.24 mg modified-release Compound 1): 4×0.06 mg Compound 1 modified-release tablet for 5 days • Regimen E (0.30 mg modified-release Compound 1): 5×0.06 mg Compound 1 modified-release tablet for 5 days

Molecules are shown by their SMILES.

On to `O=C(O)COC[C@H]1CC[C@H](COC(=O)N(c2ccccc2)c2ccc(Cl)cc2)CC1` [Compound 1, 2-(((1r,4r)-4-(((4-chlorophenyl)(phenyl)carbamoyloxy)methyl)cyclohexyl)methoxy)acetic acid], for which the “Exposure in the fed and fasted states” value (after single administration and at steady state) was “similar”. Further, where the note is “modified-release tablet”, the “increase of Cmax at steady state, female vs male subjects” value was “greater than 42%”. Besides, the “mean plasma exposure measures, females compared to males” value (modified-release tablet once daily) is listed as “Somewhat higher”. For the same compound, the peak-trough fluctuation entry (modified-release tablet once daily, across dose levels) is “low peak-trough fluctuation”. The “Tmax, fed state” value (modified-release tablet, fed vs fasted) is “delayed in the fed state”.
